Data reported in patent publication US20100178700A1, “NOVEL THYMIC CELLULAR POPULATIONS AND USES THEREOF” (priority 2007, published 2010).
“Also recorded” adds a separate entry of the source. Where two headings read alike, the source gives them in different places.

What was measured:
[1] = test system: Aire; assay: Aire expression in mTEC during thymic recovery
Description: Primary antibodies and lectins used were FITC-conjugated UEA-1 lectin (Silenus?), Ki67 (BD), PE-conjugated Ly51 (clone 6C3, Pharmingen) Ki67 (BD), I-A/I-E (BD), CD45 (LCA)(BD), PerCP Cy5.5 conjugated CD45 (BD), APC-conjugated I-A/I-E (Miltenyi), biotinylated CD31 (BD), and EpCAM (G8.8a, prepared in-house from a clone kindly donated by Dr. A. Fan) MTS15 hybridoma supernatant (prepared in-house), rat anti-mouse Aire (a kind gift from Dr. H. Scott). Secondary reagents used were FITC-conjugated anti-rat IgG2c, Streptavidin PerCPCy5.5 and Streptavidin APC.
Antibodies and conjugates were obtained from BD Pharmingen (USA) unless otherwise indicated. […] Secondary antibodies used were anti-rat IgG2c (Southern Biotech, USA), anti-rat IgG2a (Southern Biotech, USA) Streptavidin PerCP Cy5.5 and Streptavidin APC, anti-rabbit IgG-Alexa 488 (Invitrogen, USA).

[2] = test system: thymocytes; assay: Thymus cellularity and thymocyte subsets after drug-induced thymus depletion; details: mice, i.p. treatment
Description: (§1) Male and female C57B16 mice aged at 4-8 weeks were obtained from Monash Animal Services and housed under SPF conditions.
(§2) Control mice were injected with the same volume of PBS.
Control mice were given PBS alone.
(§3) Mice were given either 20 mg/kg Dexamethasone (Lyppards, Australia) or the equivalent volume of PBS as a single i.p. injection.
(§4) In all experiments, the final day of treatment was designated as Day 0. Mice were then humanely killed by CO2 asphyxiation at various timepoints.
(§5) Each thymus was thoroughly cleaned of fat and connective tissue and its capsule nicked with fine scissors. Each thymus was then incubated at 37° C. for 10 minutes in 2 mL of 0.125% (w/v) Collagenase D with 500 μL of 0.1% (w/v) DNAse I (both from Roche, Germany) in RPMI-1640, with regular agitation. The supernatant was collected, kept on ice, and the digestion repeated using the remaining settled thymic fragments. After 3 digestions, the remaining aggregates were incubated for 10 minutes with 1 mL of 0.125% (w/v) Collagenase/Dispase (Roche, Germany) with 500 μL 0.1% (w/v) DNAse I in RPMI-1640. Cells from all supernatant fractions were then pooled and centrifuged at 472 gmax for 5 minutes, then resuspended in cold EDTA/FACS buffer (5 mM EDTA in PBS with 2% FCS and 0.02% NaN3). Cells were filtered through 100 μm mesh. Cell counts were performed using a Z2 Coulter Counter (Beckman Coulter USA).
(§6) Male and female C57B1/6J (B6) mice aged at 8-12 weeks were obtained from Monash Animal Services and housed under SPF conditions, in accordance with institutional guidelines.
(§7) In all experiments, the final day of treatment was designated as Day 0. Mice were then humanely killed by CO2 asphyxiation at indicated timepoints.
(§8) Briefly, thymi were agitated in RPMI-1640 to flush out thymocytes. After collecting supernatant, thymic fragments were incubated individually at 37° C. for 10 minutes in 2 mL of 0.125% (w/v) Collagenase D with 500 μL of 0.1% (w/v) DNAse I (both from Roche, Germany) in RPMI-1640, with regular agitation. The supernatant was collected, kept on ice, and the digestion repeated three times, followed by a final 10 minute digestion in 1 mL of 0.125% (w/v) Collagenase/Dispase (Roche, Germany) with 500 μL 0.1% (w/v) DNAse I in RPMI-1640. The supernatant fractions were then pooled and centrifuged, keeping each thymus separate, at 472 gmax for 5 minutes, and resuspended in cold EDTA/FACS buffer (5 mM EDTA in PBS with 2% FCS and 0.02% Sodium Azide). Cells were filtered through 100 μm mesh. Cell counts were performed using a Z2 Coulter Counter (Beckman Coulter USA).

[3] = test system: thymic epithelial cells; assay: Thymic epithelial cell (TEC) subsets by flow cytometry after drug-induced thymic damage; details: for effect on TEC subsets: mice, i.p. treatment
Description: as §2
Control mice were given PBS alone.
as §3, §4, §5
(§9) Cells were washed in cold EDTA/FACS buffer and 5×10^6 cells dispensed into 96 well round-bottom plates, Cells were suspended in 50 μL of a primary mAb (hybridoma supernatant or suboptimal dilution of purified antibody) or conjugate for 15 minutes at 4° C. in the dark, followed by a wash step (200 μL EDTA/FACS buffer, 1300 rpm centrifuge for 3 minutes). Secondary mAb were then added and incubated and cells were washed twice. For intracellular staining, cells were washed once in cold PBS then fixed and permeabilised using the BD Cytofix/Cytoperm kit (BD Biosciences, USA) according to the manufacturer's instructions. Cells were stained with 50 μL of primary antibody diluted in PermWash buffer for 30 mins, then washed in PermWash buffer and incubated with secondary antibody where required. Cells were washed in PermWash, then finally washed in FACS buffer, before being resuspended in 200 μL of FACS or EDTA/FACS buffer for acquisition.
(§10) A FACScalibur and CellQuest software (BD Biosciences, USA) were used for flow cytometric analysis, using four fluorescent channels (FL1 for FITC, FL2 for PE, FL3 for CyChrome/PECy5, PerCP and PI, and FL4 for APC). All compensations were performed on single colour labelling of an appropriate cell sample containing both positive and negative populations. Exclusion of non-viable and haemopoietic cells was based on forward light scatter versus side light scatter and CD45 expression respectively.
as §7, §8

[4] = test system: thymocytes; details: mouse, in vivo
Description: as §1, §2
Control mice were given PBS alone.
as §3, §4, §5, §6, §7, §8

[5] = test system: thymic epithelial cells; details: mouse, in vivo
Description: as §2
Control mice were given PBS alone.
as §3, §4, §5, §9, §10, §7, §8

[6] = days after cessation of treatment

effect on Aire expression ([1]; mouse, in vivo) | return of thymic cellularity to untreated levels [4] [days] | recovery of mTEC-hi [5] [days] | return of TEC subsets to normal / homeostatic proportions [5] [days] | return of cTEC to normal levels / homeostasis [5] [days] | Compound | effect on Aire expression ([1]; by treatment) | effect on all thymocyte subsets [2] | effect on thymic cellularity / thymic involution [2] | recovery of mTEC-lo cells to normal / untreated levels [3, 6] [days] | return of TEC subsets to normal / homeostatic proportions [3, 6] [days] | effect on TEC subsets [3] | effect on TEC subsets ([3]; listed as cyclophosphamide) | effect on non-TEC stromal cells ([3]; mouse, in vivo) | effect on all thymocyte subsets ([4]; ip)
– | – | – | – | – | O=P1(N(CCCl)CCCl)NCCCO1 (centres unmarked) [Cyclophosphamide] | almost completely abrogated | marked reduction in all thymocyte subsets | severe thymic involution; also recorded: greatest impact on thymic cellularity | ≤ 28 | 28 | mTEC-Hi were proportionally the major subset effected; also recorded: ablated all TEC subsets | TEC as a population are significantly reduced | not effected | –
almost completely abrogated | ≤ 14 | ≤ 14 | ≤ 28 | ≤ 7 | C[C@@H]1C[C@H]2[C@@H]3CCC4=CC(=O)C=C[C@]4(C)[C@@]3(F)[C@@H](O)C[C@]2(C)[C@@]1(O)C(=O)CO [Dexamethasone] | – | – | – | – | – | – | – | – | marked reduction in all thymocyte subsets
